Experimental findings from patent US9029404B2, “Apoptosis-inducing agents for the treatment of cancer and immune and autoimmune diseases” (AbbVie Inc., priority 2008, dated 2015) are described below.

Chain of GST-Bcl-2 (P10415 whole entry): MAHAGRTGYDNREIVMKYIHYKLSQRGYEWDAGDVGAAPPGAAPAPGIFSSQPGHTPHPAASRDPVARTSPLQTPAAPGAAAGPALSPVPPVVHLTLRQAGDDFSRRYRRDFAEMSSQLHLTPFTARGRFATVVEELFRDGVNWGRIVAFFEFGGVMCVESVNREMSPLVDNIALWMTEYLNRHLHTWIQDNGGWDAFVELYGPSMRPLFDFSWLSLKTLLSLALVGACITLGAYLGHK

This assay addresses GST-Bcl-2 (Homo sapiens, UniProt P10415). Nature of the assay: Time Resolved-Fluorescence Resonance Energy Transfer (TR-FRET) Bcl-2 binding assay. Particulars: competition with F-Bak peptide probe (100 nM); GST-Bcl-2 1 nM; Tb-anti-GST 1 nM; 3 hours at room temperature; Wang's equation. The protocol:
Determination of the utility of compounds having Formula (I) as binders to and inhibitors of anti-apoptotic Bcl-2 proteins was performed using the Time Resolved-Fluorescence Resonance Energy Transfer (TR-FRET) Assay. Tb-anti-GST antibody was purchased from Invitrogen (Catalog No. PV4216).
Representative compounds were serially diluted in dimethyl sulfoxide (DMSO) starting at 50 μM (2× starting concentration; 10% DMSO) and 10 μL were transferred into a 384-well plate. The samples are then mixed on a shaker for 1 minute and incubated for an additional 3 hours at room temperature. For each assay, the probe/antibody and protein/probe/antibody were included on each assay plate as negative and positive controls, respectively. Fluorescence was measured on the Envision (Perkin Elmer) using a 340/35 nm excitation filter and 520/525 (F-Bak peptide) and 495/510 nm (Tb-labeled anti-Histidine antibody) emission filters.
The samples were then mixed on a shaker for 1 minute and incubated for an additional 3 hours at room temperature. For each assay, the probe/antibody and protein/probe/antibody were included on each assay plate as negative and positive controls, respectively. Fluorescence was measured on the Envision (Perkin Elmer) using a 340/35 nm excitation filter and 520/525 (F-Bak peptide) and 495/510 nm (Tb-labeled anti-Histidine antibody) emission filters.
The inhibition constant (Ki) is the dissociation constant of an enzyme-inhibitor complex or a protein/small molecule complex, wherein the small molecule is inhibiting binding of one protein to another protein. So a large Ki value indicates a low binding affinity and a small Ki value indicates a high binding affinity.
Background: Time-resolved FRET reads energy transfer from a long-lived donor to a nearby acceptor.
In general, Ki refers to a dissociation constant, usually derived from enzyme kinetics or from competition with a known ligand. Molecule `CC1(C)CCC(CN2CCN(c3ccc(C(=O)NS(=O)(=O)c4ccc(NCC5CCC(C)(O)CC5)c([N+](=O)[O-])c4)c(Oc4cnc(N)c(Cl)c4)c3)CC2)=C(c2ccc(Cl)cc2)C1` (stereo not drawn) [Example 437, 2-[(6-amino-5-chloropyridin-3-yl)oxy]-4-(4-{[2-(4-chlorophenyl)-4,4-dimethylcyclohex-1-en-1-yl]methyl}piperazin-1-yl)-N-[(4-{[(cis-4-hydroxy-4-methylcyclohexyl)methyl]amino}-3-nitrophenyl)sulfonyl]benzamide] showed a Ki of less than 0.01 nM.
Under `CC1(C)CCC(CN2CCN(c3ccc(C(=O)NS(=O)(=O)c4ccc(NC[C@H]5CC[C@H](C#N)CC5)c([N+](=O)[O-])c4)c(Oc4cnc(N)c(Cl)c4)c3)CC2)=C(c2ccc(Cl)cc2)C1` [Example 401, Trans-2-[(6-amino-5-chloropyridin-3-yl)oxy]-4-(4-{[2-(4-chlorophenyl)-4,4-dimethylcyclohex-1-en-1-yl]methyl}piperazin-1-yl)-N-[(4-{[(4-cyanocyclohexyl)methyl]amino}-3-nitrophenyl)sulfonyl]benzamide] stands 0.035 nM; under `CC1(C)CC(c2ccc(Cl)cc2)=C(CN2CCN(c3ccc(C(=O)NS(=O)(=O)c4ccc(OCC5(F)CCOCC5)c([N+](=O)[O-])c4)c(Oc4cc5cc[nH]c5cc4F)c3)CC2)CO1` [Example 297, 4-(4-{[4-(4-chlorophenyl)-6,6-dimethyl-5,6-dihydro-2H-pyran-3-yl]methyl}piperazin-1-yl)-2-[(6-fluoro-1H-indol-5-yl)oxy]-N-({4-[(4-fluorotetrahydro-2H-pyran-4-yl)methoxy]-3-nitrophenyl}sulfonyl)benzamide], less than 0.01 nM; under `CC1(C)CCC(CN2CCN(c3ccc(C(=O)NS(=O)(=O)c4ccc(N[C@@H]5CCN(C6COC6)C5)c([N+](=O)[O-])c4)c(Oc4cnc(N)c(Cl)c4)c3)CC2)=C(c2ccc(Cl)cc2)C1` [Example 455, 2-[(6-amino-5-chloropyridin-3-yl)oxy]-4-(4-{[2-(4-chlorophenyl)-4,4-dimethylcyclohex-1-en-1-yl]methyl}piperazin-1-yl)-N-[(3-nitro-4-{[(3R)-1-(oxetan-3-yl)pyrrolidin-3-yl]amino}phenyl)sulfonyl]benzamide], 0.011 nM.
With `CC1(C)CCC(CN2CCN(c3ccc(C(=O)NS(=O)(=O)c4cnc(NCC5CCOCC5)c([N+](=O)[O-])c4)c(Oc4cnc(N)c(Cl)c4)c3)CC2)=C(c2ccc(Cl)cc2)C1` [Example 449, 2-[(6-amino-5-chloropyridin-3-yl)oxy]-4-(4-{[2-(4-chlorophenyl)-4,4-dimethylcyclohex-1-en-1-yl]methyl}piperazin-1-yl)-N-({5-nitro-6-[(tetrahydro-2H-pyran-4-ylmethyl)amino]pyridin-3-yl}sulfonyl)benzamide] the figure was less than 0.01 nM; with `CC1(C)CCC(CN2CCN(c3ccc(C(=O)NS(=O)(=O)c4cnc(OCC5CCC(C)(O)CC5)c(Cl)c4)c(Oc4cc(F)cc5[nH]ncc45)c3)CC2)=C(c2ccc(Cl)cc2)C1` (stereo not drawn) [Example 424, N-({5-chloro-6-[(trans-4-hydroxy-4-methylcyclohexyl)methoxy]pyridin-3-yl}sulfonyl)-4-(4-{[2-(4-chlorophenyl)-4,4-dimethylcyclohex-1-en-1-yl]methyl}piperazin-1-yl)-2-[(6-fluoro-1H-indazol-4-yl)oxy]benzamide], less than 0.01 nM.
Turning to `CC1(C)CCC(CN2CCN(c3ccc(C(=O)NS(=O)(=O)c4ccc(OCC5(F)CCOCC5)c(Cl)c4)c(Oc4cc5cc[nH]c5cc4F)c3)CC2)=C(c2ccc(Cl)cc2)C1` [Example 412, N-({3-chloro-4-[(4-fluorotetrahydro-2H-pyran-4-yl)methoxy]phenyl}sulfonyl)-4-(4-{[2-(4-chlorophenyl)-4,4-dimethylcyclohex-1-en-1-yl]methyl}piperazin-1-yl)-2-[(6-fluoro-1H-indol-5-yl)oxy]benzamide], the Ki amounted to 1.12 nM.
In turn, `CC1(C)CCC(CN2CCN(c3ccc(C(=O)NS(=O)(=O)c4ccc(OCC5(F)CCN(C6COC6)CC5)c([N+](=O)[O-])c4)c(Oc4cnc(N)c(Cl)c4)c3)CC2)=C(c2ccc(Cl)cc2)C1` [Example 432, 2-[(6-amino-5-chloropyridin-3-yl)oxy]-4-(4-{[2-(4-chlorophenyl)-4,4-dimethylcyclohex-1-en-1-yl]methyl}piperazin-1-yl)-N-[(4-{[4-fluoro-1-(oxetan-3-yl)piperidin-4-yl]methoxy}-3-nitrophenyl)sulfonyl]benzamide] gave a Ki of less than 0.01 nM.
With `CC1(C)CCC(CN2CCN(c3ccc(C(=O)NS(=O)(=O)c4cnc(OCC5CCC(C)(O)CC5)c(C#N)c4)c(Oc4cc(F)cc5[nH]ncc45)c3)CC2)=C(c2ccc(Cl)cc2)C1` (stereo not drawn) [Example 453, 4-(4-{[2-(4-chlorophenyl)-4,4-dimethylcyclohex-1-en-1-yl]methyl}piperazin-1-yl)-N-({5-cyano-6-[(trans-4-hydroxy-4-methylcyclohexyl)methoxy]pyridin-3-yl}sulfonyl)-2-[(6-fluoro-1H-indazol-4-yl)oxy]benzamide] the figure was less than 0.01 nM.
With `CC(C)(C)OC(=O)N1CCC(c2ccc(Cl)cc2)=C(CN2CCN(c3ccc(C(=O)NS(=O)(=O)c4cnc(OCC5(F)CCOCC5)c(Cl)c4)c(Oc4cc5cc[nH]c5cc4F)c3)CC2)C1` [Example 416, tert-butyl 5-[(4-{4-[({5-chloro-6-[(4-fluorotetrahydro-2H-pyran-4-yl)methoxy]pyridin-3-yl}sulfonyl)carbamoyl]-3-[(6-fluoro-1H-indol-5-yl)oxy]phenyl}piperazin-1-yl)methyl]-4-(4-chlorophenyl)-3,6-dihydropyridine-1(2H)-carboxylate] the figure was 7.44 nM.
Take `CC1(C)CCC(CN2CCN(c3ccc(C(=O)NS(=O)(=O)c4ccc(OC[C@H]5CC[C@](C)(O)CC5)c([N+](=O)[O-])c4)c(Oc4cnc(N)c(Cl)c4)c3)CC2)=C(c2ccc(Cl)cc2)C1` [Example 441, 2-[(6-amino-5-chloropyridin-3-yl)oxy]-4-(4-{[2-(4-chlorophenyl)-4,4-dimethylcyclohex-1-en-1-yl]methyl}piperazin-1-yl)-N-({4-[(trans-4-hydroxy-4-methylcyclohexyl)methoxy]-3-nitrophenyl}sulfonyl)benzamide]: the affinity corresponds to a Ki of 0.054 nM.
With `CC1(C)CCC(CN2CCN(c3ccc(C(=O)NS(=O)(=O)c4cnc(OC[C@H]5CC[C@H](O)CC5)c(Cl)c4)c(Oc4ccc(F)c5[nH]ncc45)c3)CC2)=C(c2ccc(Cl)cc2)C1` [Example 419, N-({5-chloro-6-[(trans-4-hydroxycyclohexyl)methoxy]pyridin-3-yl}sulfonyl)-4-(4-{[2-(4-chlorophenyl)-4,4-dimethylcyclohex-1-en-1-yl]methyl}piperazin-1-yl)-2-[(7-fluoro-1H-indazol-4-yl)oxy]benzamide] the figure was 0.012 nM; with `CCC1(O)CCC(CNc2ccc(S(=O)(=O)NC(=O)c3ccc(N4CCN(CC5=C(c6ccc(Cl)cc6)CC(C)(C)CC5)CC4)cc3Oc3cnc(N)c(Cl)c3)cc2[N+](=O)[O-])CC1` (stereo not drawn) [Example 447, 2-[(6-amino-5-chloropyridin-3-yl)oxy]-4-(4-{[2-(4-chlorophenyl)-4,4-dimethylcyclohex-1-en-1-yl]methyl}piperazin-1-yl)-N-[(4-{[(cis-4-ethyl-4-hydroxycyclohexyl)methyl]amino}-3-nitrophenyl)sulfonyl]benzamide], 0.029 nM; with `O=C(NS(=O)(=O)c1cnc(OCC2(F)CCOCC2)c(Cl)c1)c1ccc(N2CCN(CC3=C(c4ccc(Cl)cc4)CCN(C(CF)CF)C3)CC2)cc1Oc1cc2cc[nH]c2cc1F` [Example 417, N-({5-chloro-6-[(4-fluorotetrahydro-2H-pyran-4-yl)methoxy]pyridin-3-yl}sulfonyl)-4-(4-{[4-(4-chlorophenyl)-1-(1,3-difluoropropan-2-yl)-1,2,5,6-tetrahydropyridin-3-yl]methyl}piperazin-1-yl)-2-[(6-fluoro-1H-indol-5-yl)oxy]benzamide], 6.88 nM.
With `CC1(C)CC(c2ccc(Cl)cc2)=C(CN2CCN(c3ccc(C(=O)NS(=O)(=O)c4ccc(OCC5(F)CCOCC5)c(Cl)c4)c(Oc4cc5cc[nH]c5cc4F)c3)CC2)CO1` [Example 413, N-({3-chloro-4-[(4-fluorotetrahydro-2H-pyran-4-yl)methoxy]phenyl}sulfonyl)-4-(4-{[4-(4-chlorophenyl)-6,6-dimethyl-5,6-dihydro-2H-pyran-3-yl]methyl}piperazin-1-yl)-2-[(6-fluoro-1H-indol-5-yl)oxy]benzamide] the figure was 0.739 nM.
